Data: article PMC12518639, “Apomorphine is a novel necroptosis inhibitor targeting mixed lineage kinase domain-like protein oligomerization” (Cell Death Discovery, 2025)

What was measured:
[1] = tested on: APAP-induced liver injury in BALB/c mice; test: APAP-induced liver injury model; type: in vivo, mouse; conditions: 15 mg/kg once, APAP i.p., 24 h; for Necrotic area of liver tissue (H&E): n=3
Experimental: For APAP-induced liver injury, male BALB/c mice aged 6–8 weeks (Central Lab Animal Inc., S. Korea) and male MLKL^–/– C57BL/6 mice aged 6–8 weeks (Cyagen, Santa Clara, CA, USA) were administered acetaminophen (APAP; 400–500 mg/kg, 103-90-2, Sigma-Aldrich) by i.p. injection to induce liver injury in the presence or absence of APO after 12 h of fasting. After 24 h, the mice were sacrificed to obtain liver tissues for further analysis.
For liver tissue preparation, each liver was perfused with DPBS and then fixed in 4% paraformaldehyde (PFA; PC2031-050-00, Biosesang, S. Korea) before embedding in paraffin. Sections were stained with H&E, and necrotic areas were quantified using ImageJ by calculating the proportion of pale or unstained regions relative to the total tissue area. Mouse liver sections were subjected to IHC staining to assess distinct forms of cell death: an anti-p-MLKL antibody (MA5-32752, Thermo Fisher Scientific) to evaluate p-MLKL localization (necroptosis), a TUNEL assay kit (4810-30-K, R&D Systems) for apoptosis, and an anti-4-HNE antibody (GTX01087, GeneTex) for ferroptosis.

MLKL = test: Confocal microscopy of MLKL membrane translocation; type: cell-based, human; conditions: THP-1, TBZ, 8 h
Experimental: THP-1 cells were washed and fixed in 4% paraformaldehyde and incubated in 0.25% Triton X-100 for 10 min, blocked for 30 min with 5% BSA-PBS, and stained with the MLKL and CD36 (ab252922, Abcam) antibody. The nuclei were stained with DAPI. Confocal microscopy (FV1000, Olympus, Tokyo, Japan) was used for image analysis. The signal intensity was measured using FluoView FV1000 software.

THP-1 cells = test: Released HMGB1 in supernatant of TBZ-treated cells; type: cell-based, human; conditions: TBZ-treated THP-1, different concentrations, 8 h
Experimental: TBZ-treated cell supernatants were harvested and centrifuged using Amicon ultra centrifugal filters 10 kDa (UFC501096, Millipore, Billerica, MA, USA) at 4000×g for 1 h. The concentrated supernatants were analyzed using SDS-PAGE to assess released HMGB1 levels.

THP-1-HMGB1-Lucia cells = test: TBZ-induced necroptosis screening by HMGB1-luciferase release; type: cell-based, human; conditions: Homo sapiens; 20 μM compound with TBZ, 8 h; TBZ alone = 100, DPBS = 0; read-out: % Inhibition (luciferase activity relative to TBZ-treated supernatant)
Experimental: To identify potential inhibitors of the necroptosis pathway targeting MLKL or the process of p-MLKL pore formation on the membrane, we screened a library of 2150 compounds, including FDA-approved drugs and those in phase 1–3 clinical trials, using THP-1-HMGB1-Lucia™ cells expressing the HMGB1-luciferase fusion protein. The cells were treated with a necroptosis-inducing mixture containing TNF-α, BV6, and Z-VAD-FMK (TBZ) in addition to the compound library (Fig. 1A). The supernatants were harvested to measure luciferase activities for necroptosis. The luciferase activities of cell supernatants treated with TBZ alone were considered as the maximum release (100%) of HMGB1-luciferase. NEC-1, a known RIP1 inhibitor used in both humans and mice, was used as a positive control. […] Next, we performed a propidium iodide (PI) uptake assay to exclude cytotoxic compounds using THP-1 cells. Then, we selected candidate molecules that were arbitrarily less than 30% of those treated with TBZ. […] Next, the inhibition levels of p-MLKL were tested to select MLKL-targeting molecules (Figs. 1C and S1A). Compounds that reduced p-MLKL levels to less than 30% of TBZ-treated controls were considered as potential inhibitors of MLKL phosphorylation. Conversely, compounds that maintained p-MLKL levels above 70% were selected because they are presumed to prevent the formation of pores in the plasma membrane by interfering with oligomerization.
A clinical chemical library containing 2150 items (Korea Chemical Bank, South Korea), under phase 1–3 clinical trials, including FDA-approved drugs, was used to screen for necroptosis inhibitors. Each chemical was dissolved in DMSO and diluted to 20 μM in DPBS for treatment.
THP-1-HMGB1-Lucia^TM cells were pretreated with the pan-caspase inhibitor Z-VAD-FMK (50 μM, tlrl-vad, InvivoGen) and each chemical for 1 h, and followed by TNF-α (100 ng/mL, TNF0501, NKMAXBio, Seongnam, S. Korea) and Smac mimetic BV6 (10 μM, B1332-5, Biovision, Santa Clara, CA, USA), termed TBZ mixture, were added for necroptosis screening. The RIP1 inhibitor, NEC-1 (1846, Biovision), and MLKL inhibitor, NSA (432531-71-0, Sigma-Aldrich, St. Louis, MO, USA), were used as controls. The cell supernatant was harvested to measure HMGB1 levels using a luciferase assay kit (E1500, Promega, Madison, WI, USA) by a luminometer (Centro XS3 LB 960, Berthold Technologies, Bad Wildbad, Germany). The inhibition of necroptosis (%) was calculated as: (sample-treated data – medium-only data) × 100/(TBZ-treated data – medium-only data). APO [STK088477, (6aS)-6-methyl-5,6,6a,7-tetrahydro-4H-dibenzo[de,g]quinoline-10,11-diol, Vitas-M Laboratory, Hong Kong] was stored at −70 °C after aliquoting with DMSO. APO was used after dilution in DPBS. APO is susceptible to auto-oxidation in solution in the presence of light and air. DPBS containing 5 mM DTT was used for Re-APO. Ox-APO was prepared by incubating APO in DPBS at 25 °C for 24 h in the presence of light and air, followed by removal of any precipitate by filtration through 0.2 μm.

SMILES	Serum ALT and AST levels [1]	membrane p-MLKL in liver (IHC) [1]	Necrotic area of liver tissue (H&E) [1]	inhibition of migration of p-MLKL to the cell membrane (MLKL; same concentration)	level of MLKL in the cell membrane (MLKL)	HMGB1 release (THP-1 cells)	activity at 20 µM (THP-1-HMGB1-Lucia cells)
CN1CCc2cccc3c4c(cc1c23)C=CC(=O)C4=O [Ox-APO]	significantly improved	dramatic decrease	1%	more effective than Re-APO			
CN1CCc2cccc3c2[C@@H]1Cc1ccc(O)c(O)c1-3 [S62, (6aS)-6-methyl-5,6,6a,7-tetrahydro-4H-dibenzo[de,g]quinoline-10,11-diol]					profoundly decreased	dose-dependently decreased	7.1%
CN1CCc2cccc3c2C1Cc1ccc(O)c(O)c1-3 (stereo not shown) [Re-APO]	significantly improved	dramatic decrease	3%				
